Assays:
[1] = system: CRE-directed transcription in MCF7 cells; experiment: Transient transcription assay, somatostatin Δ-71 SS-CAT reporter; type: cell-based, human; conditions: for effect on CAT activity / CRE-directed transcription: intact cells, transient transcription assay
Experimental: The CRE oligonucleotide successfully interfered with the CRE-directed transcription in intact cells. To analyze the effect of CRE oligonucleotide in CRE-directed transcription, a transient transcription assay was performed using a reporter plasmid, somatostatin Δ-71 (CPE-containing promoter)-CAT (chloramphenicol acetyltransferase) fusion gene (Montminy et al., Proc. Natl. Acad. Sci. 83, 6682 [1986]). MCF7 cells were transfected with 5 μg of somatostatin-chloramphenicol acetyltransferase fusion gene (Δ-71 SS-CAT plasmid) and 4 μg of CRE (i.e., the 24-mer described in Example 1) or control oligonucleotide by the use of transfection reagent N-[1-(2,3-Dioleoyloxy)propyl]-N,N,N-trimethylammonium methysulfate (DOTAP). After 5 hours, fresh medium was added, and the cells were harvested at 48 to 72 hours, then assayed for CAT activity. Some samples were also treated with forskolin (10 μM), an compound with adenyl cyclase activating properties (i.e., a compound that increases intracellular cAMP concentrations), for the final 24 hours. Cell lysates were prepared as described by Gorman (Gorman, High efficiency gene transfer into mammalian cells, DNA Cloning, Vol II, pp 143-165, IRL press, Oxford, England [1985]). Lysates (75 μg of protein) were incubated with 0.4 μCi of [^14 C]chloramphenicol, 0.53 mM acetyl-CoA, and 250 mM Tris-HCl, pH 7.8 for 90 minutes at 37° C. Under these conditions, CAT activity was linear with time. Reaction products were analyzed by thin-layer chromatography (Gorman, supra).

[2] = system: cancer cells: MCF7, LNCaP, A549, OVCAR 8, LS174T, KB, MCF7-TH, HCT-15; experiment: Cancer cell growth in vitro (cell counts); type: cell-based, human
Experimental: (§1) Cells (0.25-1×10^5 /well) were plated in a 6-well plate containing the growth medium at 37° C. The 24-mer-CRE palindrome oligonucleotide (i.e., as described in Example 1) or two-base mismatched control oligonucleotide (i.e., as described in Example 1) was added, one day after seeding, to duplicate wells at varying concentrations. To increase the delivery of oligonucleotides into the cell, transfection reagent DOTAP was added along with the oligonucleotides. Saline treated (untreated), DOTAP treated (0 concentration), CRE, or CRE control oligonucleotide treated cells were harvested after 4 days of treatment, and cell numbers were counted in duplicate by a Coulter Counter. […] In this figure, lines with closed circles represent cells treated with the 24-mer-CRE palindrome oligonucleotide, while lines with open boxes represent cells treated with the control, mismatch oligonucleotide.

[3] = system: normal human mammary epithelial, lung epithelial and human newborn foreskin fibroblast (HS68) cell lines; experiment: Growth of normal cell lines; type: cell-based
[4] = Cellular uptake of 32P-labeled oligonucleotide; type: in vitro ADME, human
Experimental: To examine the efficacy of cellular incorporation of the CRE oligonucleotides, we incubated ^32 P-labeled samples of CRE-palindromeoligonucleotide and control oligonucleotide with MCF7 and MCF10A cells. Cell-associated radioactivity was quantified. Within 5 hrs, about 10% of the total input oligonucleotide accumulated in the cell and the incorporation continued to rise thereafter reaching 20-25% maximum levels at 24 hr of oligonucleotide incubation. The amounts and the rates of the incorporation of oligonucleotide were similar between MCF7 and MCF10A cells and between the CRE-decoy oligonucleotide and control oligonucleotide.

[5] = system: CRE-protein complex (CRE DNA-binding proteins such as 43 kDa CREB); experiment: Mobility shift assay of CRE DNA-protein complex formation in nuclear extracts of treated cells; type: cell-based, human; conditions: cells treated 150 nM for 2 days; MCF7, MCF10A and LNCaP; versus saline treated cells
Experimental: Cells were treated with saline (i.e., control cells), the CRE 24-mer (150 nM for 2 days), or a control oligonucleotide and nuclear extracts were prepared using the method of Dignam (Dignam et al., Nucleic Acid Res. 11, 1475 [1983]). The control oligonucleotide was 5'-[…]-3' (SEQ ID NO: 8), which is a copy of the CRE 24-mer with two mismatched bases included in each consensus sequence motif (i.e., it will not bind as well to transcription factors as will the consensus sequence oligonucleotide). Nuclear extracts were obtained from the cells and were analyzed by a mobility shift assay to compare the amount of CRE-protein bound complex between treated, untreated, and control samples. The DNA binding assay was performed by a method modified from that of Fried and Crothers (Fried and Crothers, Nucleic Acid Res. 9, 6506 [1981]). Briefly, nuclear extracts (10 μg protein) were pre-incubated with poly(dI-dC).cndot. poly (dI-dC) (1 μg), DTT (0.3 mM), and binding buffer (12 mM Tris pH 7.9, 2 mM MgCI2, 60 mM KCl, 0.12 mM EDTA, and 12% glycerol) with or without antiserum (2-4 μl) for 30 min at 4° C. ^32 P-labeled oligonucleotide (double-stranded CRE triplet, 5'-[…]-3'; SEQ ID NO:12) was then added and the reaction mixtures were incubated for 10 min at 37° C. The reaction mixtures were then separated on a 4% polyacrylamide gel at 200 V for 1.5 hours. The gel was dried and autoradiographed. […]

OVCAR8 cells = experiment: Cell and nuclear morphology (Giemsa, Hoechst 33258), apoptosis; type: cell-based, human; conditions: OVCAR 8
Text: After staining, the whole cells were visualized under an inverted microscope at ×240. […] The nuclear morphology of cells was visualized by a fluorescence microscope (Olympus BH2) at ×2600.

[6] = system: HCT-15 human MDR colon carcinoma; experiment: Tumor growth in vivo, HCT-15 xenograft; set-up: species or system athymic mice; conditions: 5x/week, 4 weeks
Experimental: HCT-15 human MDR colon carcinoma tumor cells (2×10^6 cells) were inoculated subcutaneously into the left flank of athymic mice. The CRE or control oligonucleotide was injected intraperitoneally into mice at 0.01-0.1 mg/0.1 ml saline/mouse, daily, 5×/week for 4 weeks, when tumor size reached 30-50 mg ~10 days after cell inoculation. Tumor volumes were obtained from daily measurements of the longest and shortest diameters and calculated by the formula, 4/3πr^3 where r=(length+width)/4.

[7] = system: bcl-2 protein in MCF7 cells; experiment: Bcl-2 protein level by western blot; type: cell-based, human; conditions: 150 nM, 4 days
Experimental: (§2) Bcl-2 protein levels were measured by standard western blotting techniques known in the art using Anti-bcl-2 antibody.

[8] = system: bcl-2 protein in MCF-10A cells; experiment: Bcl-2 protein level by western blot; type: cell-based, human; conditions: MCF-10A normal cells
Experimental: as §2

[9] = system: protein kinase A (PKA) in cultured ovarian cancer cells; experiment: PKA activity of cell extracts by column chromatography; type: cell-based; conditions: treated versus untreated ovarian cancer cells
Experimental: (§3) Cultured ovarian cancer cells were treated with and without CRE decoy oligonucleotide using the methods of Example 1 below. Extracts were analyzed by column chromatography for PKA activity.

[10] = system: protein kinase A (PKA) in HS68 cells; experiment: as above; type: cell-based, human; conditions: treated versus untreated HS68 cells
Experimental: as §3

[11] = system: normal cells MCF-10A and L-132; experiment: Normal cell growth in vitro (cell counts); type: cell-based, human; conditions: MCF-10A and L-132, 4 days of treatment
Experimental: as §1

[12] = summary in description, concentration not given

Row | Substance | effect on CAT activity / CRE-directed transcription [1] | growth inhibition ([2]; 150 nM, separate experiments) | growth inhibition [2, 12] | formation of the CRE-protein complex [5] | changes in cell morphology and apoptotic nuclei (OVCAR8 cells) | bcl-2 level [7] | bcl-2 level [8] | also measured
1 | 5'-GCTGACGTCGGCCTGACGTCAGC-3' (chemistry not given here) [SEQ ID NO:3, non-palindromic hairpin forming CRE oligonucleotide] | interfered with CRE-directed transcription |  |  |  |  |  |  | 
2 | 5'-TGACGGCATGACGGCATGACGGCA-3' (chemistry not given here) |  | 30% | 30% |  |  |  |  | 
3 | 5'-TGACGTCA TGACGTCA TGACGTCA-3' (TGACGTCATGACGTCATGACGTCA; chemistry not given here) [24-mer CRE oligonucleotide, transcription factor decoy] |  |  |  | marked decrease | appearance of apoptotic nuclei | markedly reduced | did not alter | inhibition of the CRE-directed transcription ([1]; 4 μg oligonucleotide with 5 μg Δ-71 SS-CAT, DOTAP, versus Δ-71 CAT alone): greater than 90%; growth of normal cell lines [3]: not affected; maximum level of oligonucleotide incorporation ([4]; 24 hr of incubation): 20-25%; total input oligonucleotide accumulated in the cell ([4]; within 5 hrs): about 10%; toxicity ([6]; 0.01 or 0.1 mg/mouse i.p. daily): without causing toxicity; inhibition of tumor growth ([6]; 0.01 or 0.1 mg/mouse i.p. daily, versus saline treated tumors): greater than 85%; PKA activity peaks (Type-1 and Type-2) [9]: no peaks; IC50 ([2]; 4 days of treatment, with DOTAP, read-out: IC50, growth inhibition of cancer cells): 100 to 150 nM; PKA activity [10]: did not show any differences; growth of normal cells [11]: unaffected
4 | 5'-TGCCGTCATGCCGTCATGCCGTCA-3' (chemistry not given here) [24-mer CRE-hairpin sense oligonucleotide] | strongly inhibited | 70% | 70-80% |  |  |  |  | effect on CAT activity / CRE-directed transcription ([1]; listed as SEQ ID NO:10): strong inhibition
5 | 5'-TGTGGTCATGTGGTCATGTGGTCA-3' (DNA, backbone and methylation of C not given here) [reference compound] | no inhibitory effect |  |  | same or similar intensity band | not observed | no effect | no effect | tumor growth inhibitory effect ([6]; i.p. daily): no growth inhibitory effect; growth inhibitory effect ([2]; 4 days of treatment, with DOTAP): no growth inhibitory effect
6 | 24-mer CRE-hairpin sense and antisense oligonucleotides in combination: two complementary hairpin-forming oligonucleotides combined, producing a cruciform structure (sense TGCCGTCATGCCGTCATGCCGTCA; antisense TGACGGCATGACGGCATGACGGCA; two hairpin-forming strands combined into cruciform structure, further chemistry not given here) |  | over 80% | over 80% |  |  |  |  | 

Source: patent US6060310A, “Transcription factor decoy and tumor growth inhibitor” (priority 1997, dated 2000)
